Publication PMC7556697 (ACS chemical biology, 2020)
pIC50: −log10 of the molar value.

Molecular target: NRAS (Homo sapiens, UniProt P01111, Q61R)
Experiment: acyl-resin assisted capture
Assay type: cell-based

- pIC50: 5.15
Substance: C8 alkyl cysteine [compound 1]
